{"source": "PubChem BioAssay (NCI)", "assay_in_all_cases": "NCI anticancer screen, dose series, 384-well format", "key": {"A498 renal": {"system": "A498 renal"}, "A549 NSCLC": {"system": "A549 NSCLC"}, "BT-549 breast": {"system": "BT-549 breast"}, "CAKI-1 renal": {"system": "CAKI-1 renal"}, "COLO 205 colon": {"system": "COLO 205 colon"}, "DU-145 prostate": {"system": "DU-145 prostate"}, "EKVX NSCLC": {"system": "EKVX NSCLC"}, "HCC-2998 colon": {"system": "HCC-2998 colon"}, "HCT-116 colon": {"system": "HCT-116 colon"}, "HCT-15 colon": {"system": "HCT-15 colon"}, "HL-60(TB) leukemia": {"system": "HL-60(TB) leukemia"}, "HOP-92 NSCLC": {"system": "HOP-92 NSCLC"}, "HS 578T breast": {"system": "HS 578T breast"}, "HT29 colon": {"system": "HT29 colon"}, "IGROV1 ovarian": {"system": "IGROV1 ovarian"}, "KM12 colon": {"system": "KM12 colon"}, "LOX IMVI melanoma": {"system": "LOX IMVI melanoma"}, "MCF7 breast": {"system": "MCF7 breast"}, "MDA-MB-231 breast": {"system": "MDA-MB-231 breast"}, "MDA-MB-468 breast": {"system": "MDA-MB-468 breast"}, "MOLT-4 leukemia": {"system": "MOLT-4 leukemia"}, "NCI-H226 lung": {"system": "NCI-H226 lung"}, "NCI-H23 lung": {"system": "NCI-H23 lung"}, "NCI-H322M lung": {"system": "NCI-H322M lung"}, "NCI-H460 NSCLC": {"system": "NCI-H460 NSCLC"}, "NCI-H522 lung": {"system": "NCI-H522 lung"}, "NCI/ADR-RES ovarian": {"system": "NCI/ADR-RES ovarian"}, "OVCAR-3 ovarian": {"system": "OVCAR-3 ovarian"}, "OVCAR-4 ovarian": {"system": "OVCAR-4 ovarian"}, "OVCAR-5 ovarian": {"system": "OVCAR-5 ovarian"}, "OVCAR-8 ovarian": {"system": "OVCAR-8 ovarian"}, "PC-3 prostate": {"system": "PC-3 prostate"}, "RPMI-8226 leukemia": {"system": "RPMI-8226 leukemia"}, "RXF 393 renal": {"system": "RXF 393 renal"}, "SF-268 CNS": {"system": "SF-268 CNS"}, "SK-MEL-28 melanoma": {"system": "SK-MEL-28 melanoma"}, "SK-MEL-5 melanoma": {"system": "SK-MEL-5 melanoma"}, "SK-OV-3 ovarian": {"system": "SK-OV-3 ovarian"}, "SN12C renal": {"system": "SN12C renal"}, "SNB-19 CNS": {"system": "SNB-19 CNS"}, "SNB-75 CNS": {"system": "SNB-75 CNS"}, "SR leukemia": {"system": "SR leukemia"}, "T-47D breast": {"system": "T-47D breast"}, "U251 glioblastoma": {"system": "U251 glioblastoma"}, "UACC-257 melanoma": {"system": "UACC-257 melanoma"}, "UACC-62 melanoma": {"system": "UACC-62 melanoma"}}, "note": "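At the GI50, growth is halved. TGI is the concentration that stops growth completely.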"}
{"smiles": "Cn1cc(-c2cnn3c(N)c(Br)c(C4CCCNC4)nc23)cn1", "note": "(stereo unspecified)", "values": [{"measurement": "GI50", "setting": "A498 renal", "result": "< 0.01", "unit": "µM"}, {"measurement": "TGI", "setting": "A498 renal", "result": 0.0226, "unit": "µM"}, {"measurement": "GI50", "setting": "A549 NSCLC", "result": 7.68, "unit": "µM"}, {"measurement": "TGI", "setting": "A549 NSCLC", "result": 28.6, "unit": "µM"}, {"measurement": "GI50", "setting": "BT-549 breast", "result": 0.033, "unit": "µM"}, {"measurement": "TGI", "setting": "BT-549 breast", "result": 5.25, "unit": "µM"}, {"measurement": "GI50", "setting": "CAKI-1 renal", "result": 1.46, "unit": "µM"}, {"measurement": "TGI", "setting": "CAKI-1 renal", "result": 15.2, "unit": "µM"}, {"measurement": "GI50", "setting": "COLO 205 colon", "result": 0.922, "unit": "µM"}, {"measurement": "TGI", "setting": "COLO 205 colon", "result": 5.81, "unit": "µM"}, {"measurement": "GI50", "setting": "DU-145 prostate", "result": 0.227, "unit": "µM"}, {"measurement": "TGI", "setting": "DU-145 prostate", "result": 15.6, "unit": "µM"}, {"measurement": "GI50", "setting": "EKVX NSCLC", "result": 3.54, "unit": "µM"}, {"measurement": "TGI", "setting": "EKVX NSCLC", "result": 23.8, "unit": "µM"}, {"measurement": "GI50", "setting": "HCC-2998 colon", "result": "< 0.01", "unit": "µM"}, {"measurement": "TGI", "setting": "HCC-2998 colon", "result": 0.0624, "unit": "µM"}, {"measurement": "GI50", "setting": "HCT-116 colon", "result": 2.01, "unit": "µM"}, {"measurement": "TGI", "setting": "HCT-116 colon", "result": 15.6, "unit": "µM"}, {"measurement": "GI50", "setting": "HCT-15 colon", "result": 2.08, "unit": "µM"}, {"measurement": "TGI", "setting": "HCT-15 colon", "result": 19.4, "unit": "µM"}, {"measurement": "GI50", "setting": "HL-60(TB) leukemia", "result": 0.032, "unit": "µM"}, {"measurement": "TGI", "setting": "HL-60(TB) leukemia", "result": 0.129, "unit": "µM"}, {"measurement": "GI50", "setting": "HOP-92 NSCLC", "result": 0.0263, "unit": "µM"}, {"measurement": "TGI", "setting": "HOP-92 NSCLC", "result": 33.3, "unit": "µM"}, {"measurement": "GI50", "setting": "HS 578T breast", "result": 0.0302, "unit": "µM"}, {"measurement": "TGI", "setting": "HS 578T breast", "result": 18.9, "unit": "µM"}, {"measurement": "GI50", "setting": "HT29 colon", "result": 0.989, "unit": "µM"}, {"measurement": "TGI", "setting": "HT29 colon", "result": 12.9, "unit": "µM"}, {"measurement": "GI50", "setting": "IGROV1 ovarian", "result": 0.0563, "unit": "µM"}, {"measurement": "TGI", "setting": "IGROV1 ovarian", "result": 13.2, "unit": "µM"}, {"measurement": "GI50", "setting": "KM12 colon", "result": 0.117, "unit": "µM"}, {"measurement": "TGI", "setting": "KM12 colon", "result": 15.8, "unit": "µM"}, {"measurement": "GI50", "setting": "LOX IMVI melanoma", "result": 1.33, "unit": "µM"}, {"measurement": "TGI", "setting": "LOX IMVI melanoma", "result": 4.22, "unit": "µM"}, {"measurement": "GI50", "setting": "MCF7 breast", "result": 1.36, "unit": "µM"}, {"measurement": "TGI", "setting": "MCF7 breast", "result": 17.9, "unit": "µM"}, {"measurement": "GI50", "setting": "MDA-MB-231 breast", "result": 2.9, "unit": "µM"}, {"measurement": "TGI", "setting": "MDA-MB-231 breast", "result": 42.2, "unit": "µM"}, {"measurement": "GI50", "setting": "MDA-MB-468 breast", "result": 3.75, "unit": "µM"}, {"measurement": "TGI", "setting": "MDA-MB-468 breast", "result": 24.4, "unit": "µM"}, {"measurement": "GI50", "setting": "MOLT-4 leukemia", "result": 0.0234, "unit": "µM"}, {"measurement": "TGI", "setting": "MOLT-4 leukemia", "result": 0.053, "unit": "µM"}, {"measurement": "GI50", "setting": "NCI-H226 lung", "result": 3.29, "unit": "µM"}, {"measurement": "TGI", "setting": "NCI-H226 lung", "result": 18.6, "unit": "µM"}, {"measurement": "GI50", "setting": "NCI-H23 lung", "result": 0.027, "unit": "µM"}, {"measurement": "TGI", "setting": "NCI-H23 lung", "result": 21.2, "unit": "µM"}, {"measurement": "GI50", "setting": "NCI-H322M lung", "result": 0.293, "unit": "µM"}, {"measurement": "TGI", "setting": "NCI-H322M lung", "result": 22.1, "unit": "µM"}, {"measurement": "GI50", "setting": "NCI-H460 NSCLC", "result": 0.93, "unit": "µM"}, {"measurement": "TGI", "setting": "NCI-H460 NSCLC", "result": 10.9, "unit": "µM"}, {"measurement": "GI50", "setting": "NCI-H522 lung", "result": 2.56, "unit": "µM"}, {"measurement": "TGI", "setting": "NCI-H522 lung", "result": 11.4, "unit": "µM"}, {"measurement": "GI50", "setting": "NCI/ADR-RES ovarian", "result": 2.04, "unit": "µM"}, {"measurement": "TGI", "setting": "NCI/ADR-RES ovarian", "result": "> 100", "unit": "µM"}, {"measurement": "GI50", "setting": "OVCAR-3 ovarian", "result": 0.188, "unit": "µM"}, {"measurement": "TGI", "setting": "OVCAR-3 ovarian", "result": 20.3, "unit": "µM"}, {"measurement": "GI50", "setting": "OVCAR-4 ovarian", "result": "< 0.01", "unit": "µM"}, {"measurement": "TGI", "setting": "OVCAR-4 ovarian", "result": 26.6, "unit": "µM"}, {"measurement": "GI50", "setting": "OVCAR-5 ovarian", "result": 0.0964, "unit": "µM"}, {"measurement": "TGI", "setting": "OVCAR-5 ovarian", "result": 16.5, "unit": "µM"}, {"measurement": "GI50", "setting": "OVCAR-8 ovarian", "result": 0.0382, "unit": "µM"}, {"measurement": "TGI", "setting": "OVCAR-8 ovarian", "result": 21.2, "unit": "µM"}, {"measurement": "GI50", "setting": "PC-3 prostate", "result": 1.8, "unit": "µM"}, {"measurement": "TGI", "setting": "PC-3 prostate", "result": 14.6, "unit": "µM"}, {"measurement": "GI50", "setting": "RPMI-8226 leukemia", "result": 0.0358, "unit": "µM"}, {"measurement": "TGI", "setting": "RPMI-8226 leukemia", "result": 0.643, "unit": "µM"}, {"measurement": "GI50", "setting": "RXF 393 renal", "result": 0.0332, "unit": "µM"}, {"measurement": "TGI", "setting": "RXF 393 renal", "result": 25, "unit": "µM"}, {"measurement": "GI50", "setting": "SF-268 CNS", "result": 5.36, "unit": "µM"}, {"measurement": "TGI", "setting": "SF-268 CNS", "result": 27.2, "unit": "µM"}, {"measurement": "GI50", "setting": "SK-MEL-28 melanoma", "result": 11.1, "unit": "µM"}, {"measurement": "TGI", "setting": "SK-MEL-28 melanoma", "result": 26.5, "unit": "µM"}, {"measurement": "GI50", "setting": "SK-MEL-5 melanoma", "result": 0.0346, "unit": "µM"}, {"measurement": "TGI", "setting": "SK-MEL-5 melanoma", "result": 1.2, "unit": "µM"}, {"measurement": "GI50", "setting": "SK-OV-3 ovarian", "result": 0.0621, "unit": "µM"}, {"measurement": "TGI", "setting": "SK-OV-3 ovarian", "result": 23.2, "unit": "µM"}, {"measurement": "GI50", "setting": "SN12C renal", "result": 0.0371, "unit": "µM"}, {"measurement": "TGI", "setting": "SN12C renal", "result": 3.72, "unit": "µM"}, {"measurement": "GI50", "setting": "SNB-19 CNS", "result": 0.983, "unit": "µM"}, {"measurement": "TGI", "setting": "SNB-19 CNS", "result": 37.1, "unit": "µM"}, {"measurement": "GI50", "setting": "SNB-75 CNS", "result": 4.99, "unit": "µM"}, {"measurement": "TGI", "setting": "SNB-75 CNS", "result": 25.3, "unit": "µM"}, {"measurement": "GI50", "setting": "SR leukemia", "result": "< 0.01", "unit": "µM"}, {"measurement": "GI50", "setting": "T-47D breast", "result": 14.6, "unit": "µM"}, {"measurement": "TGI", "setting": "T-47D breast", "result": 37.1, "unit": "µM"}, {"measurement": "GI50", "setting": "U251 glioblastoma", "result": 5.36, "unit": "µM"}, {"measurement": "TGI", "setting": "U251 glioblastoma", "result": 20.3, "unit": "µM"}, {"measurement": "GI50", "setting": "UACC-257 melanoma", "result": 2.29, "unit": "µM"}, {"measurement": "TGI", "setting": "UACC-257 melanoma", "result": 19.5, "unit": "µM"}, {"measurement": "GI50", "setting": "UACC-62 melanoma", "result": 0.88, "unit": "µM"}, {"measurement": "TGI", "setting": "UACC-62 melanoma", "result": 15.3, "unit": "µM"}]}
